{"source": "patent US9963480B2", "about": "“Nucleoside phosphoramidate compound and use thereof” (priority 2013, dated 2018)", "key": {"[1]": {"tested_on": "HCV 1b replicon", "assay": "Antiviral activity assay in HCV replicon system (Huh7 1b cells, luciferase reporter)", "type": "cell-based", "settings": "Hepatitis C virus, Huh-7; Huh7 1b cells with HCV 1b replicon, Bright-Glo luciferase, 72 h; read-out: EC50", "from_the_text": "The cell line Huh7 1b, which was provided by WuXi AppTec Co., Ltd. in Shanghai, contained an HCV 1b replicon with a stable Luciferase (Luc) reporter. It was constructed by cloning HCV nonstructural protein gene, neo (G418 resistance) and luciferase reporter gene into the pBR vector through gene recombination technology. Then the vector carrying the HCV replicon was transfected into Huh7 cells, and the transfected Huh7 cells were screened by G418 resistance. The HCV replicon was stably replicated, and the related protein and luciferase were stably expressed in Huh7 cells. The cells model was used for in-vitro screen of anti-HCV compounds. The anti-HCV activity of the compounds was measured by detecting the level of luciferase expression. See Lohmann V, et al. 1999. Replication of subgenomic hepatitis C virus RNAs in a hepatoma cell line. Science. 285(5424):110-113.\nThe control drug used in this experimental example was the compound of Example 25 in WO 2008/121634 (PCT/US2008/058183), i.e. (S)-2-{[(2R,3R,4R,5R)-5-(2,4-dioxo-3,4-dihydro-2H-pyrimidin-1-yl)-4-fluoro-3-hydr oxy-4-methyl-tetrahydro-furan-2-ylmethoxy]-phenoxy-phosphorylamino}-propanoic acid isopropyl ester. This compound was prepared according to the method described in J. Org. chem, 2011, 76, 8311-8319, and identified by H-NMR and mass spectrometry.\n• 2.1 compound preparation: adding each of the compounds listed in Table 2 to 96-well plates using a POD™ 810 Automation Platform (LabCyte Corporation, USA), with 10 μM of each of the compounds as a starting concentration and in duplicate; serially diluting each of the compounds in 3-fold fashion and formulating 10 concentrations, with the final concentration of DMSO being 0.5%; • 2.2 cells preparation: seeding the Huh71b cells into 96-well plates respectively with a volume of 125 μl and 8×10^3 cells/well, and incubating in a 37° C., 5% CO2 incubator for 72 h; • 2.3 detection of cell activity: adding 30 μl per cell of the CellTiter-Fluor™ Reagent, incubating in a 37° C., 5% CO2 incubator for 1 h, measuring the fluorescence signal values with a fluorometer, and using the obtained data for calculation of cytotoxicities of the compounds; • 2.4 Bright-Glo detection: adding 100 μl per well of the Bright-Glo™ Luciferase Substrate, using a chemiluminescence detection system EnVision™ (PerkinElmer, USA) to detect the fluorescence signal values within 5 minutes, and using the obtained data for calculation of potencies of the compounds. • 2.5 data processing: converting the obtained data to a percentage of cell viability (Viability %) using the following formula:\n[formula] • CPD: fluorescence signal value of the well added with the compound • ZPE (Zero percent effect): fluorescence signal value of the control well with zero percent effect. • Processing the raw data to calculate a percentage of inhibition (Inhibition %) using the following formula:\n[formula] • CPD: fluorescence signal value of the well added with the compound; • HPE (Hundred percent effect): fluorescence signal value of the control well with hundred percent effect; • ZPE (Zero percent effect): fluorescence signal value of the control well with zero percent effect.\nThe inhibition percentage was processed by the GraphPad Prism software to obtain the corresponding curves and EC50 values."}, "[2]": {"assay": "Pharmacokinetic studies in SD rats: metabolite GS-461203 in liver homogenate", "type": "in vivo", "settings": "liver tissue, 50 mg/kg intragastric", "description": "In this experiment, the compound of Example 1 was used, and the positive control drug was the same as above. Each of the compounds was added to 0.5% sodium carboxymethyl cellulose (CMC), and the mixture was vortexed to prepare a 10 mg/mL suspension for intragastric administration.\nThe standard substance GS-461203 was the metabolite of the tested compounds, and the chemical name was (2′R)-2′-deoxy-2′-fluoro-2′-methyluridinetriphosphate, which was purchased from TriLink BioTechnologies Corporation, USA.\nMale SD rats, 6-8 weeks old, weighing 237.0-268.4 g, provided by Shanghai Super-B&K laboratory animal Co. Limited.\n• 1) administration: dividing SD rats into 4 groups, with 18 rats in each group, intragastrically administering with the compound in an amount of 50 mg/kg. […]"}}}
{"compound": "CC(C)OC(=O)[C@H](C)NP(=O)(OC[C@H]1O[C@@H](n2ccc(=O)[nH]c2=O)[C@](C)(F)[C@@H]1O)Oc1ccc(-c2ccccc2)cc1", "note": "(stereo partly drawn) [Example 1, (2S)-2-((([1,1′-biphenyl]-4-yloxy)(((2R,3R,4R,5R)-5-(2,4-dioxo-3,4-dihydropyrimidin-1(2H)-yl)-4-fluoro-3-hydroxy-4-methyltetrahydrofuran-2-yl)methoxy)phosphoryl)amino)propanoic Acid Isopropyl Ester]", "values": [{"measurement": "EC50", "setting": "[1]", "result": 0.056, "unit": "µM"}, {"measurement": "in vivo exposure level of the metabolite compared with the positive control", "setting": "[2]", "result": "greater"}]}
